# According to patent US9682994B2, “Inhibitors of retroviral replication” (The Scripps Research Institute, priority 2011, dated 2017):
# Like-named read-outs stand apart in the source and are kept apart here.
# Experiments:
# HeLa-CD4 cells = assay: MTT mitochondrial metabolic activity (cell viability); type: cell-based
# HIV-1 pNL4-3 = assay: Viral mRNA expression after acute infection of HeLa-CD4 cells (RT-qPCR); type: cell-based
# Text: FIG. 1E: Analysis of viral mRNA expression. […] First-strand cDNA was synthesized with random primers and target DNA was quantified by qPCR using primers recognizing the env and LTR regions. Results were normalized as copies of viral mRNA per copy of GAPDH mRNA. […] RNA samples not reverse transcribed were used as negative control. Error bars represent standard deviations.
# Total RNA extracted four days after acute infection with pNL4-3 (MOI>>1) in the presence of drugs. First-strand cDNA was synthesized with random primers, and quantified by qPCR using primers recognizing the env and LTR regions. Results were normalized as copies of viral mRNA per copy of GAPDH mRNA. The arbitrary value of 1 was assigned to the DMSO control. RNA samples that were not reverse transcribed were used as negative control. Error bars represent standard deviation.
# First-strand cDNA from RNA for qPCR was prepared using […]™ first-strand cDNA kit (Invitrogen), following the manufacturer's instructions, using approximately 5 μg of RNA as starting material and random hexamers as first-strand primers. Quantitative PCR was performed with an aliquot of cDNA as template, using […]® 480 SYBR Green I Master (Roche) in a 20 μL reaction according to the manufacturer's instructions. […] The primers used were as follows: […]
# PIs show low efficacy in this short 48 h assay as they act only upon spreading from the initial infection. […] The results were similar when viral production was determined by RT-PCR of viral RNA in HeLa-CD4 cells infected and treated for four days with one compound from each class of inhibitors (FIG. 5E).
# Tat = assay: Biotinylated compound streptavidin-bead pull-down of Tat; type: binding, HIV-1; conditions: flag-tagged Tat expressed in cells or recombinant Tat
# Method: (§1) HEK293T cells were transfected with flag-tagged Tat 101 a.a. (Tat-F-101-wt), a shorter Tat version with 86 a.a. (Tat-F-86-wt), Tat 86 a.a. mutated in the basic domain (Tat-F-BRM), flag-tagged CDK11 (CDK11-F), flag-tagged 9G8 (9G8-F) and empty vector control.
# Recombinant Tat protein was incubated with Bio-dCA streptavidin-coated beads in the presence or absence of an excess of non-biotinylated dCA (represented as molar equivalent [eq.] of Bio-dCA). Raltegravir and recombinant GST-9G8 were used as a negative control competitor or as negative protein-binding control, respectively.
# (§2) DYNABEADS® MYONE™ Streptavidin T1 (12.5 μl slurry) (Invitrogen) were pre-saturated with 1.88 μl of 1 mM in DMSO of Biotin alone or Bio-dCA and incubated for 1 h at room temperature with orbital rocking, plus an additional 30 min with Biotin (0.63 μl of 1 mM in DMSO). Protein extracts (250 μg per sample) were incubated with the pre-saturated beads in lysis buffer supplemented with 0.1% BSA for 1 h at 4° C. with orbital rocking. After incubation, the beads were washed three times with lysis buffer.
# For the pull-down of recombinant Tat (#2222 of NIH) and GST-9G8, streptavidin-agarose beads (40 μl slurry) were pre-saturated with 1.5 μl of 1 mM in DMSO, Biotin alone, or Bio-dCA and incubated for 1 h at room temperature. […] After incubation, the beads were washed three times with PBS and proteins were eluted as before.
# [1] = test system: basic region Tat mutant (Tat-1 BRM); assay: Biotinylated compound pull-down of basic region Tat mutant; type: binding, HIV-1
# Method: as §1, §2
# HIV-2 (ROD/A) = assay: Chronic HIV-2 replication in HeLa-CD4 cells, p24 ELISA; type: cell-based; conditions: p24, 7 days; read-out: EC50, chronic infection by HIV-2
# Text: Antigen p24 in the supernatant measured as in FIG. 5F, 7 days post-infection.
# HIV-1 pNL43 = assay: HIV-1 replication in PHA/IL-2 stimulated human PBMCs, p24 ELISA; type: cell-based
# Method: Freshly isolated uninfected human PBMCs were stimulated with PHA for two days, washed, and grown from then on in IL-2 alone. […] Antigen p24 was measured 5 days post infection using a sandwich ELISA kit.
# To isolate PBMCs, 24 ml of total blood diluted two fold in RPMI or PBS were carefully layered over 12 ml of Ficoll-paque and centrifuged at 2000 rpm for 20 min (brakes off). Resultant layers are approximately from top to bottom: plasma-platelets-PBMC-Ficoll-red blood cells (with granulocytes). Most of the plasma was pipetted off and discarded. The buffy coat with PBMC's was carefully removed from 3 large (50 ml) tubes and transferred to a new 50 ml tube. The remaining Ficoll and red blood cells were discarded in closed tubes. Enough PBS was added to the PBMCs to make up 50 ml and centrifuged at 1200 rpm for 10 min, brakes on. The supernatant was decanted and the pellet was loosened and washed twice with PBS. Washed pellet was recovered in 30 ml of RPMI 1640 supplemented with 10% serum, 1% Penicillin-streptomycin and mixed well. PBMCs were counted and plated at 1×10^6 cells/ml. To activate the PBMCs, PHA (phytohaemagglutinin) was added at 3 μg/ml. Two to three days later add Interleukin 2 (IL2) at 3×10^−3 μg/ml.
# PHA activated PBMCs were centrifuged and recovered at 6×10^6 cells in 3 ml complete RPMI. Then 3 ml of viral supernatant was added and incubated for 4 h at 37° C. After this period, cells were centrifuged, washed 3 times with PBS and recovered in 3 ml complete RPMI. PBMCs were plated at 0.5 ml per well in a 6-well plate, and 0.5 ml media with DMSO control or anti-viral control at 2× final concentration was added. IL-2 was added at 3×10^−3 μg/ml. Supernatant was recovered for p24 assay every 3-4 days post infection. Cells were split at 1×10^6 cell per ml every 5-7 days.
# HIV-1 transcription is intimately linked to T-cell activation due to shared motifs between the HIV-LTR and the regulatory regions in induced genes, namely NF-κB. A large variety of T cell stimuli activate NF-κB, including PHA, IL-2 and tumor necrosis factor alpha (TNF-α).
smiles,measurement,setting,value
"CN(C)[C@H]1C[C@@]23CC[C@@]4(O2)C(=CC[C@]2(C)C(c5ccc6ccncc6c5)=CC[C@H]24)C=C3[C@@H](O)[C@@H]1O [dCA, didehydro-Cortistatin A]",CC50,HeLa-CD4 cells,20 µM
same,CC50,"HeLa-CD4 cells; cultured cell lines or freshly isolated PBLs, read-out: cytotoxic concentration (CC50)",20 µM
same,"maximum inhibition, viral RNA",HIV-1 pNL4-3; HeLa-CD4 infected and treated for four days,around 80%
same,EC50,"HIV-1 pNL4-3; HeLa-CD4 infected and treated for four days, read-out: EC50, viral production by RT-PCR of viral RNA",< 0.0001 µM
same,total amount of viral RNA in infected cells,"HIV-1 pNL4-3; acute infection, increasing concentrations",drastic dose-dependent reduction
same,interaction with Tat (pull-down),Tat,interacted directly
same,interaction with TAR-nonbinding basic region Tat mutant (pull-down),[1],not
same,EC50,HIV-2 (ROD/A),~0.0017 µM
same,maximum inhibition plateau in PBMCs,HIV-1 pNL43,86%
same,EC50,"HIV-1 pNL43; p24 ELISA, 5 days post infection, read-out: EC50, HIV-1 replication in primary cells (PBMCs)",< 0.001 µM
